Laboratory results as given in publication PMC11815855, “Exploring the Structure–Activity Relationships of Albumin-Targeted Picoplatin-Based Platinum(IV) Prodrugs” (Inorganic Chemistry, 2025).
Marks after values point to notes of the source that are not given here.

Assays:
[1] = tested on: A2780/wt ovarian cancer cells; assay: MTT-based cell viability assay, A2780/wt, 72 h; set-up: species or system human; conditions: 72 h drug exposure, means of independent experiments
Excerpt: (§1) For the cell culture assays, the human ovarian model A2780/wt and its corresponding cisplatin-resistant subline A2780/cis (both purchased from Sigma and cultured in RPMI1640 medium), the human colorectal cancer model HCT116 (cultured in McCoy′s medium), and the murine (Balb/c) colorectal cancer model CT26 (cultured in DMEM/F-12 (1:1) medium) were used. The colon cancer models were purchased from the American Type Culture Collection (ATCC). The media were supplemented with 10% FCS (purchased from PAA Linz, Austria). To maintain drug resistance of A2780/cis, the subline was cultivated under continuous selection pressure (1 μM cisplatin). The selection drug was removed 1 week before the experiments were performed. Cell cultures were maintained at 37 °C in humidified atmosphere containing 5% CO2. All cultures were free of antibiotics and regularly checked for mycoplasma contamination. All cell culture media and reagents were purchased from Sigma-Aldrich Austria. All investigated drugs were dissolved in either water (oxaliplatin, carboplatin) or DMF before further dilution in cell culture medium. DMF concentrations were always below 0.5%.
(§2) Subsequently, the cells were incubated with the tested compounds in rising concentrations. […] The received data were visualized as dose–response curves by Graph Pad Prism 5 software (Graph Pad software, USA).

[2] = tested on: A2780/cis ovarian cancer cells; assay: MTT-based cell viability assay, A2780/cis (cisplatin-resistant), 72 h; set-up: species or system human; conditions: for IC50 in A2780/cis compared to A2780/wt / RF (resistance factor): 72 h; for IC50 in A2780/cis compared to A2780/wt / IC50: MTT-based assay; for IC50: 72 h drug exposure, cisplatin-resistant subline, means of independent experiments; for RF (resistance factor): fold-change between IC50 values of A2780/cis:A2780/wt
Excerpt: as §1, §2

[3] = tested on: HCT116 colon cancer cells; assay: MTT-based cell viability assay, HCT116, 72 h; set-up: species or system human; conditions: 72 h drug exposure
Excerpt: as §1, §2

CT26 colon cancer cells [4] = assay: MTT-based cell viability assay, CT26, 72 h; set-up: species or system murine; conditions: 72 h drug exposure
Excerpt: as §1, §2

[5] = tested on: HCT116 colon cancer cells; assay: Colony formation (clonogenic) assay, HCT116, 7 days; format: cell-based, human; conditions: for IC50: 7 days drug exposure, clonogenic assay
Excerpt: as §1
(§3) Then, cells were exposed to the indicated drugs in rising concentrations. After 7 days, the cells were fixed with methanol for 20 min at 4 °C and stained with crystal violet 5 (0.01% in PBS). The fluorescence of the crystal violet was detected by the Typhoon scanner (Typhoon TRIO Variable Mode Imager, GE Healthcare Life Sciences) after excitation by the red laser (633 nm). Quantification was done with ImageJ software.

CT26 colon cancer cells [6] = assay: Colony formation (clonogenic) assay, CT26, 7 days; format: cell-based, murine; conditions: 7 days drug exposure
Excerpt: as §1, §3

[7] = Interaction of platinum(II) complexes with 10 equiv GSH, NMR; format: physicochemical; conditions: 1 mM complex, 10% D2O/90% PBS pH 7.4, 37 °C, 8 h, 1H NMR
Protocol: The amount of remaining platinum(II) complex was monitored via ^1H NMR spectroscopy and, particularly for ^15N-cisplatin, via [^1H, ^15N] heteronuclear single quantum coherence (HSQC) NMR spectroscopy (Figure 1).[47]
(§4) An 1 mM solution of Pt compound was incubated in a mixture of 90% PB or PBS (150 mM, pH 7.4) and 10% D2O at 37 °C with and without the addition of 10 equiv GSH. The reaction was monitored with ^1H or [^1H, ^15N] […] The reference spectrum was shifted with a value of −0.5 ppm compared to the original ppm value calibrated to D2O before overlay with a spectrum at a single time point. In case of ^15N-cisplatin, the cross-peak of the parental complex in [^1H, ^15N] HSQC at time point 0 h was used as reference, and spectral overlay was achieved by shifting the 2D spectra at all given time points (2, 4, 6, and 8 h) with vertical steps of +14 ppm compared to the original ^15N NMR ppm value of the parental complex.

[8] = Stability of platinum(II) complexes in PBS or PB, NMR; format: physicochemical; conditions: 1 mM, pH 7.4, 37 °C, 8 h incubation, no GSH
Protocol: as §4

CT26 allografts [9] = conditions: carboplatin 60 mg/kg i.v. once a week for two weeks, Figure S11
Protocol: days after first treatment
Balb/c mice. Mice were treated i.v. with the maximal tolerated dose of the respective drug and compared
to the solvent control. […] Oxaliplatin (9
mg/kg) was applied twice a week for two weeks. Tumor volume data are presented as means ± SEM. The
overall survival is depicted via a Kaplan –Meier curve.

[10] = Reduction kinetics of platinum(IV)-succinimide complexes with AA, UHPLC; format: physicochemical; conditions: 1 mM, 150 mM PB pH 7.4, 20 °C
Protocol: (§5) Platinum(IV) prodrugs need to be reduced in the tumor environment to release the cytotoxic platinum(II) complexes. Thus, the reduction properties of Pico-Succ, PicoCarbo-Succ, and PicoOxali-Succ were investigated. As mentioned above, succinimide complexes were used for these studies to avoid competitive hydrolysis of the maleimide moiety. All platinum(IV)-succinimide complexes were incubated in both the absence and presence of a 10-fold excess L-ascorbic acid (AA) in PB at pH 7.4 and 20 °C over 6 h. The amount of remaining intact platinum(IV) complex at given time points was measured via ultrahigh performance liquid chromatography (UHPLC), as shown in Figure 2. Pico-Succ was reduced extremely fast, with only traces of the original complex left in the first measurement after ∼5 min of incubation. Even with equimolar amounts of AA, 90% of Pico-Succ was already reduced after ∼5 min (Figure S6). This level of reductive instability is exceptionally high, even when compared to the “fast” reducing cisplatin(IV) prodrugs, which show a complete conversion after ∼10 h in the presence of 10 equiv AA.[41],[53]
(§6) PB (150 mM, pH 7.4) containing 1 mM Pt compound was incubated at 20 °C with and without the addition of 10 equiv L-ascorbic acid or reduced GSH. The reaction was monitored on a Thermo Scientific Dionex UltiMate 3000 UHPLC-system using a Waters Acquity UPLC BEH C18 1.7 μm, 3.0 × 50 mm column. Milli-Q water containing 0.1% formic acid and acetonitrile containing 0.1% formic acid were used as eluents. A gradient of 5–95% over 5 min was used with a flow of 0.6 mL/min. To evaluate the reaction process, we used the peak area of the parental complex.

[11] = Reduction of platinum(IV)-succinimide complexes with 10 equiv GSH, UHPLC; format: physicochemical; conditions: 1 mM, 150 mM PB pH 7.4, 20 °C, 5 min
Excerpt: It is well-known that platinum(IV) complexes derived from, e.g., oxaliplatin or carboplatin, bearing leaving groups other than chlorido ligands, have distinctly slower reduction rates compared to cisplatin(IV) analogs.[54] This can be explained by a bridging interaction between the chlorido ligands and the reducing agent, which facilitates electron transfer to the platinum center.[55] […] The reductive behavior was also investigated in the presence of 10 equiv GSH in coherence with the above investigated interactions of platinum(II) with GSH (Figure S8).
as §6

[12] = Hydrolytic stability of platinum(IV)-succinimide complexes in PB without AA, UHPLC; format: physicochemical; conditions: 1 mM, 150 mM PB pH 7.4, 20 °C
Protocol: as §5
PB (150 mM, pH 7.4) containing 1 mM Pt compound was incubated at 20 °C with and without the addition of 10 equiv L-ascorbic acid or reduced GSH. The reaction was monitored on a Thermo Scientific Dionex UltiMate 3000 UHPLC-system using a Waters Acquity UPLC BEH C18 1.7 μm, 3.0 × 50 mm column. […]

albumin = albumin (Bos taurus, UniProt P02769); assay: Albumin binding and stability in phosphate-buffered FCS, SEC-ICP-MS; conditions: 50 μM in FCS (150 mM PB, pH 7.4), 37 °C, 1 h
Protocol: FCS was purchased from Sigma-Aldrich and buffered with 150 mM phosphate pH 7.4 in order to guarantee a stable pH. The platinum(IV) complexes were dissolved in 150 mM PB (pH 7.4) at a concentration of 5 mM and diluted 1:100 in buffered serum to obtain a final concentration of 50 μM. […] Between each sample, a pure water blank was measured. […] Oxygen (purity 5.5, Messer Austria GmbH, Gumpoldskirchen, Austria) was used as the reaction gas.

horse heart CytC = target: T1, horse heart CytC (Equus caballus, UniProt P00004); assay: Reduction with cytochrome C and NADH, UHPLC; format: biochemical; conditions: 700 μM, 0.1 equiv CytC and 10 equiv NADH, 50 mM PB pH 6.0, 37 °C
T1 construct: 0.1 equiv horse heart CytC; from tissue; host or cells: horse heart
Excerpt: (§7) To explain the rather unusual in vivo findings, especially with respect to Pico-Mal, we hypothesized that inefficient reductive release of the platinum(II) core from albumin due to steric hindrance of the 2-picoline could provide a plausible explanation for the lack of antitumor activity despite a favorable pharmacokinetic profile. […] To gain insights into whether the molecular weight and thus steric demands of the reducing agent impact the reduction of picoplatin(IV) derivatives, Pico-Succ and the reference complex Cis-Succ were analyzed in the presence of cytochrome C (CytC; ∼12,000 g/mol) or AA (176 g/mol). Therefore, Pico-Succ and Cis-Succ (for synthesis and ^1H NMR characterization, see experimental part and Scheme S1) were coincubated at pH 6.0 with 0.1 equiv CytC[60] and 10 equiv reduced NADH or with 10 equiv AA at 37 °C over 4 h, and the reduction kinetics were compared relatively. The amount of remaining intact platinum(IV) complex at given time points was measured via UHPLC (Figure 6). […]
(§8) PB (50 mM, pH 6.0) containing 700 μM Pt compound was incubated at 37 °C with the addition of 0.1 equiv horse heart CytC and 10 equiv reduced NADH or with 10 equiv L-ascorbic acid. The reaction was monitored on a Thermo Scientific Dionex UltiMate 3000 UHPLC-system using a Waters Acquity UPLC BEH peptide C18 1.7 μm 2.1 × 100 mm column. […]

[13] = Reduction with 10 equiv AA at pH 6.0 and 37 °C, UHPLC; format: physicochemical; conditions: 700 μM, 50 mM PB pH 6.0, 37 °C
Excerpt: as §7, §8

CT26 allografts [14] = conditions: oxaliplatin 9 mg/kg i.v. twice a week for two weeks, Figure S11 ref Schueffl et al, Chem. Sci. 2021, 12, 12587-12599; cited from earlier work

T1 sequence (P00004 whole entry): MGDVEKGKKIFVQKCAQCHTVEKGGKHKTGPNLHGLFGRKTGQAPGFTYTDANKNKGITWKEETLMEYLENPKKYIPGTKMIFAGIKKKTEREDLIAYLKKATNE
Sequence of albumin (P02769 25-607): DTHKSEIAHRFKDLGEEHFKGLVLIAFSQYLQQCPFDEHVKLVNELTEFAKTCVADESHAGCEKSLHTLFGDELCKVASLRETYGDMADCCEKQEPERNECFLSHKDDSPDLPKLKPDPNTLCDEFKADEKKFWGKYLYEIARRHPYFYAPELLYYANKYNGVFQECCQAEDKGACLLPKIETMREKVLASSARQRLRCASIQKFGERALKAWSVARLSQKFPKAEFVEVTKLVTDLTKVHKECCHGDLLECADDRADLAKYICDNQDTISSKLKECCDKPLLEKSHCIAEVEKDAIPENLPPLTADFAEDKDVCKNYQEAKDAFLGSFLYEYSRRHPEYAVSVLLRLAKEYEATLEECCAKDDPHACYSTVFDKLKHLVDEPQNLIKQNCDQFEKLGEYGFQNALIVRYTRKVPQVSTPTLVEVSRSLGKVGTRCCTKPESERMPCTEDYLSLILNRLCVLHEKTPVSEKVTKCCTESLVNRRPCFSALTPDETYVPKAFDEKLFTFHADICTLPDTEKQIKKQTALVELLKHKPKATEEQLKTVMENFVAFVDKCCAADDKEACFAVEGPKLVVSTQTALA

Structure (SMILES) | IC50 [1] | IC50 in A2780/cis compared to A2780/wt [2] | IC50 [2] | RF (resistance factor) [2] | IC50 [3] | IC50 (CT26 colon cancer cells [4]) | IC50 [5] | IC50 (CT26 colon cancer cells [6]) | complex left in 10% D2O/90% PBS [8] | also measured
N.N.O=C([O-])C1(C(=O)[O-])CCC1.[Pt+2] [carboplatin] | 32 µM | 2.3 fold | 74.9 µM | 2.3**** | 63.2 µM | 22.1 µM | 7.41 µM | 4.37 µM | > 95% | intact platinum(II) complex left after 8 h with GSH [7]: ~60%; response of CT26 allografts to carboplatin (CT26 allografts [9]): highly carboplatin-resistant
CC(=O)[O][Pt]([Cl])([Cl])[O]C(=O)NCCN1C(=O)CCC1=O.Cc1ccccn1.N [Pico-Succ, (OC-6-21)[Acetato(ammine)(dichlorido)(1-(2-isocyanatoethyl)pyrrolidine-2,5-dione)(2-methylpyridine)platinum(IV)]] | 63.2 µM | – | > 100 µM | >1.6 | > 100 µM | 77.8 µM | 32.1 µM | 30.9 µM | – | reduction of IC50 values, 7 days vs 72 h ([5]; HCT116 and CT26, colony formation 7 days compared to MTT 72 h): 2–3 fold; original complex left after ∼5 min with 10 equiv AA ([10]; 10 equiv AA, first measurement ∼5 min): only traces; complex reduced after ∼5 min with equimolar AA ([10]; equimolar AA, ∼5 min): 90%; original compound remaining after 5 min with 10 equiv GSH [11]: only traces; time stable in absence of AA [12]: over 6 h; intact platinum(IV) complex left after 1 h in FCS (albumin): only traces; time to complete reduction with CytC (horse heart CytC): 1 h; reduction with AA [13]: immediate reduction
O=C1[O][Pt]2([NH][C@@H]3CCCC[C@H]3[NH]2)[O]C1=O [oxaliplatin] | 0.63 µM | 1.1 fold | 0.68 µM | 1.1^ns | 2.19 µM | 1.97 µM | 1.46 µM | 1.81 µM | readily degraded | complex left in 10% D2O/90% PB [8]: > 90%; response of CT26 allografts to oxaliplatin (CT26 allografts [14]): only moderately responsive
